Assay results from patent US20090123376A1, “THERAPEUTIC AGENTS WITH DECREASED TOXICITY” (priority 2004, published 2009).
Non-standard residues stand in square brackets, D forms with d. Residues, ends and D or L forms follow the SMILES beside them. *: point of attachment. Dolaproine = CO[C@@H]([C@@H]1CCCN1)[C@@H](C)C(=O)O; Dil = CC[C@H](C)[C@H](NC)[C@@H](CC(=O)O)OC; X1 = C[C@@H](N*)[C@@H](O)c1ccccc1; NMeV = CN[C@H](C(=O)O)C(C)C

Tests used:
[1] = Toxicity of IgG-MMAE, F(ab')2-MMAE conjugates and free MMAE in rats (Example 3); assay type: in vivo, Female Spraque-Dawley (SD) rats
Method: Female Spraque-Dawley (SD) rats weighing between 75-80 grams (Charles River Laboratories, Hollister, Calif.) were used in the following studies to compare the toxicity of free MMAE, Fab-MMAE and F(ab′)2-MMAE conjugates.
The body surface area was calculated as follows: [{(body weight in grams to 0.667 power)×11.8}/10000]. (Guidance for Industry and Reviewers. Estimating the Safety Starting Dose in Clinical Trials for Therapeutics in Adult Healthy Volunteers. U.S. Department of Health and Human Services Food and Drug Administration, Center for Drug Evaluation and Research (CDER), Center for Biologics Evaluation and research (CBER), December 2002).
General clinical observations were performed daily. Morbidity and mortality checks were performed twice daily (AM and PM). The body weights of the animals were measured pre-dose on Study Day 1 and daily thereafter. Whole blood was collected into EDTA containing tubes for hematology parameters (e.g., mean serum AST levels, ALT levels, GGT levels and billirubin levels) and differential cell counts (e.g., mean white blood cell counts and platelet counts). Whole blood was collected into serum separator tubes for clinical chemistry parameters. Blood samples were collected pre-dose on Study Day-4, on Study Day 3 and on Day 5 at necropsy. Whole blood was also collected into lithium heparin containing tubes at necropsy and the plasma was frozen at −70° C. for later analysis. The following tissues were collected at necropsy: liver, kidneys, heart, thymus, spleen, brain, sternum and sections of the GI tract, including stomach, large and small intestine. At necropsy, only spleen and thymus were weighed. All statistical analyses were done on Day 5 body weights using a One Way ANOVA, Tukey's test, (SigmaStat 2.03 Software).

[2] = system: MMTV-HER2 transgenic mammary tumors (Fo5); settings: established MMTV-HER2 transgenic mammary tumors (Fo5)
Method: Log Cell Kill analyses based on tumor doubling times were conducted. The Log Cell Kill analysis uses a mathematical computation of tumor growth delay based on the time it takes for tumors to double in size after treatment begins compared to controls.

[3] = 2105 μg MMAE/m2, day 3 (Herceptin-vc-MMAE days 3 and 5)
[4] = 2105 μg MMAE/m2 single iv bolus

In the case of `CC[C@H](C)[C@@H]([C@@H](CC(=O)N1CCC[C@H]1[C@H](OC)[C@@H](C)C(=O)N[C@H](C)[C@@H](O)c1ccccc1)OC)N(C)C(=O)[C@@H](NC(=O)[C@@H](NC)C(C)C)C(C)C` [free MMAE, monomethylauristatin] (H-[NMeV]V[Dil][Dolaproine]-X1), the “morphologic changes (histology)” value ([1]; 2105 μg MMAE/m2) is reported as “most severe”, the “liver associated serum enzymes / liver function tests” value [1, 3] is reported as “highest elevations in liver associated serum enzymes ALT, AST and GGT” and the “platelet and white blood cell counts” value [1, 3] is reported as “lowest platelet and white blood cell counts”. For the same compound, the “body weight lost by Day 3 compared with Day 1 weights” value [1, 4] was 12 grams, the “weight loss, comparison between groups” value [1, 4] was “comparable weight loss” and the clinical observations ([1]; 2105 μg MMAE/m2 single iv bolus, Study Day 3) was “moribund”.

With Herceptin® the “response of the Fo5 tumor line” value [2] was “non-responsive”.
